Here are results for 51 compounds from US9365588B2, “Benzoxazines as modulators of ion channels” (Vertex Pharmaceuticals Incorporated, priority 2011, dated 2016).

SMILES strings stand for the structures.

Broadly, the IC50 is the concentration that inhibits the measured activity by half.

The target of this test is human NaV 1.7 (Homo sapiens, UniProt Q15858). In words: E-VIPR optical membrane potential assay with electrical stimulation. Type of test: cell-based. As to conditions: sodium channel inhibition; read-out: Binned Activity Data (IC50). The source says: Assays for Detecting and Measuring NaV Inhibition Properties of Compound E-VIPR Optical Membrane Potential Assay Method with Electrical Stimulation
Chain of human NaV 1.7 (Q15858 whole entry): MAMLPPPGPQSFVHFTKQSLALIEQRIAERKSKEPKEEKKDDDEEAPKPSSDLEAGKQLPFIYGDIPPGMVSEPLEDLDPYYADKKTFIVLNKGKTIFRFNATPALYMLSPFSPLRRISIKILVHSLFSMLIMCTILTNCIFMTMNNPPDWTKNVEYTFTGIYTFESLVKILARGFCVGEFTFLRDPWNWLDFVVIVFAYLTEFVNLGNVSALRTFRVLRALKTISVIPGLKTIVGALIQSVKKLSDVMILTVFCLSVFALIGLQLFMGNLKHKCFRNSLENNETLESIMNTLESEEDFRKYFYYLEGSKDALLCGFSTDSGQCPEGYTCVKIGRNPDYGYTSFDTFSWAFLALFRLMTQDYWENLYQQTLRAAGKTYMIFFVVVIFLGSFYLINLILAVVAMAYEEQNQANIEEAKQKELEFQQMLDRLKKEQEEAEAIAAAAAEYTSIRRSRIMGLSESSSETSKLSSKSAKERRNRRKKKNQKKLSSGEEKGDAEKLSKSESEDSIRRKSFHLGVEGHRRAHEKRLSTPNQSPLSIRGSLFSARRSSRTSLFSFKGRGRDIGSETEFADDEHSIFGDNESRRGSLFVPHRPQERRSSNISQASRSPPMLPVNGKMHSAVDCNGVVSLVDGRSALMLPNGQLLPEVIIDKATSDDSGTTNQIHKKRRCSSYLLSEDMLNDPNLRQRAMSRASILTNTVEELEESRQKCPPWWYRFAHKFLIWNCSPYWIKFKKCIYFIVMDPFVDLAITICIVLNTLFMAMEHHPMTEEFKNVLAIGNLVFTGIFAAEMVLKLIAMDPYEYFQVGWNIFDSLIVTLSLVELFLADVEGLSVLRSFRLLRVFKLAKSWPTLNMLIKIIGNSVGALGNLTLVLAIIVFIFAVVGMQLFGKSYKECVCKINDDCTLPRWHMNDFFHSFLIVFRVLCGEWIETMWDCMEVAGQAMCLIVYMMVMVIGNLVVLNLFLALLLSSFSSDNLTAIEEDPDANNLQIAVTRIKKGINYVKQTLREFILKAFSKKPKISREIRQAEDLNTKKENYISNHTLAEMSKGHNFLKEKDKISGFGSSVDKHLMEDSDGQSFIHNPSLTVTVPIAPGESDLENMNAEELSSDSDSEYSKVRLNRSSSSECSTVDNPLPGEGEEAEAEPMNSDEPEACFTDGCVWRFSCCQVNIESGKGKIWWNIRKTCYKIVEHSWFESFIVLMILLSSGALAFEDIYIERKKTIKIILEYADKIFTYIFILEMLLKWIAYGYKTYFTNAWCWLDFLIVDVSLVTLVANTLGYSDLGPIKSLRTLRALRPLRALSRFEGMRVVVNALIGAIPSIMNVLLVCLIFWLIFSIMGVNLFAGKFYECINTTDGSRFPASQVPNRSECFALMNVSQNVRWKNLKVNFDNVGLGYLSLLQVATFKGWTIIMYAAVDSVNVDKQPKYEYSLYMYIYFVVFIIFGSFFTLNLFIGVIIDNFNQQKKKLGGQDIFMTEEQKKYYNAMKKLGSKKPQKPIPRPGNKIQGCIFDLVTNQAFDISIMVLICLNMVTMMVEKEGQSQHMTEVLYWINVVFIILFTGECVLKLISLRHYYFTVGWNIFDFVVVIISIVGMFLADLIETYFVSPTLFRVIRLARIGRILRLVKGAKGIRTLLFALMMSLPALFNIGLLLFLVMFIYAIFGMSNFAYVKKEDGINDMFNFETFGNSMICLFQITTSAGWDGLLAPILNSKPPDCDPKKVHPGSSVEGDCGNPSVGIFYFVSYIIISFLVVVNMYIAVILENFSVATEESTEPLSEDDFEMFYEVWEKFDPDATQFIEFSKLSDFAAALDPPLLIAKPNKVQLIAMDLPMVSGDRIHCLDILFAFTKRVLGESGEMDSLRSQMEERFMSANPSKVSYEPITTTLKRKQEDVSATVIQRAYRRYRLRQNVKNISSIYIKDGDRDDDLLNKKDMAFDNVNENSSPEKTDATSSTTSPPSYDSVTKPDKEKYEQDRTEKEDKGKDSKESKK
Sodium channels are voltage-dependent proteins that can be activated by inducing membrane voltage changes by applying electric fields. The electrical stimulation instrument and methods of use are described in Ion Channel Assay Methods PCT/US01/21652, herein incorporated by reference and are referred to as E-VIPR. The instrument comprises a microtiter plate handler, an optical system for exciting the coumarin dye while simultaneously recording the coumarin and oxonol emissions, a waveform generator, a current- or voltage-controlled amplifier, and a device for inserting electrodes in well. Under integrated computer control, this instrument passes user-programmed electrical stimulus protocols to cells within the wells of the microtiter plate.
24 hours before the assay on E-VIPR, HEK cells expressing human NaV subtype, like NaV 1.7, are seeded in 384-well poly-lysine coated plates at 15,000-20,000 cells per well. Other subtypes are performed in an analogous mode in a cell line expressing the NaV of interest. HEK cells are grown in media (exact composition is specific to each cell type and NaV subtype) supplemented with 10% FBS (Fetal Bovine Serum, qualified; GibcoBRL #16140-071) and 1% Pen-Strep (Penicillin-Streptomycin; GibcoBRL #15140-122). Cells are grown in vented cap flasks, in 90% humidity and 10% CO2, to 100% confluence. They are usually split by trypsinization 1:10 or 1:20, depending on scheduling needs, and grown for 2-3 days before the next split.
Bath1 buffer. Glucose 10 mM (1.8 g/L), Magnesium Chloride (Anhydrous), 1 mM (0.095 g/L), Calcium Chloride, 2 mM (0.222 g/L), HEPES 10 mM (2.38 g/L), Potassium Chloride, 4.5 mM (0.335 g/L), Sodium Chloride 160 mM (9.35 g/L).
Hexyl Dye Solution: Bath1 Buffer+0.5% β-cyclodextrin (make this prior to use, Sigma #C4767), 8 μM CC2-DMPE+2.5 μM DiSBAC6(3). To make the solution Add volume of 10% Pluronic F127 stock equal to volumes of CC2-DMPE+DiSBAC6(3). The order of preparation is first mix Pluronic and CC2-DMPE, then add DiSBAC6(3) while vortexing, then add Bath1+β-Cyclodextrin.
1) Pre-spot compounds (in neat DMSO) into compound plates. Vehicle control (neat DMSO), the positive control (20 mM DMSO stock tetracaine, 125 μM final in assay) and test compounds are added to each well at 160× desired final concentration in neat DMSO. Final compound plate volume will be 80 μL (80-fold intermediate dilution from 1 μL DMSO spot; 160-fold final dilution after transfer to cell plate). Final DMSO concentration for all wells in assay is 0.625%.
2) Prepare Hexyl Dye Solution.
3) Prepare cell plates. On the day of the assay, medium is aspirated and cells are washed three times with 100 μL of Bath1 Solution, maintaining 25 μL residual volume in each well.
4) Dispense 25 μL per well of Hexyl Dye Solution into cell plates. Incubate for 20-35 minutes at room temp or ambient conditions.
5) Dispense 80 μL per well of Bath1 into compound plates. Acid Yellow-17 (1 mM) is added and Potassium Chloride can be altered from 4.5 to 20 mM depending on the NaV subtype and assay sensitivity.
6) Wash cell plates three times with 100 μL per well of Bath1, leaving 25 μL of residual volume. Then transfer 25 uL per well from Compound Plates to Cell Plates. Incubate for 20-35 minutes at room temp/ambient condition
7) Read Plate on E-VIPR. Use the current-controlled amplifier to deliver stimulation wave pulses for typically 9 seconds and a scan rate of 400 Hz. A pre-stimulus recording is performed for 0.5 seconds to obtain the un-stimulated intensities baseline. The stimulatory waveform is applied for 9 seconds followed by 0.5 seconds of post-stimulation recording to examine the relaxation to the resting state. […]

Take `CCOc1cccc(C(=O)N2CCC3(CC2)Oc2cc(Cl)ccc2-n2cccc23)c1` [Compound 478]: the IC50 is no more than 2 µM.
In the case of `COc1cc(C(=O)N2CCC3(CC2)Oc2ccccc2-n2cccc23)ccc1O[C@H]1CCOC1` [Compound 837] it was no more than 2 µM; in that of `CC(C)N(C)S(=O)(=O)c1ccc(C(=O)N2CCC3(CC2)Oc2ccccc2-c2c3cnn2C)cc1` [Compound 233], 2 to 5 µM.
With `COc1cc(OC)cc(C(=O)N2CCC3(CC2)Oc2cc(Cl)ccc2-n2cccc23)c1` [Compound 534] the figure was no more than 2 µM.
In the case of `Cn1ncc2c1-c1ccccc1OC21CCN(C(=O)c2cccc3[nH]ccc23)CC1` [Compound 186] it was no more than 2 µM; in that of `COc1cc(C)ccc1C(=O)N1CCC2(CC1)Oc1cc(Cl)ccc1-n1cccc12` [Compound 627], no more than 2 µM.
As to `COc1ccc(C(=O)N2CCC3(CC2)Oc2ccccc2-c2c3cnn2C)c(OC(C)C)c1` [Compound 205], the IC50 was no more than 2 µM.
With `COc1c(C)cccc1C(=O)N1CCC2(CC1)Oc1cc(Cl)ccc1-n1cccc12` [Compound 605] the figure was no more than 2 µM; with `O=C(c1ccc(OCC2CCCO2)c(C(F)(F)F)c1)N1CCC2(CC1)Oc1ccccc1-n1cccc12` (stereo not drawn) [Compound 836], no more than 2 µM; with `Cc1c(C(=O)N2CCC3(CC2)Oc2ccccc2-c2c3cnn2C)cnn1-c1ccccc1` [Compound 252], 2 to 5 µM.
Turning to `Cn1cc2c(n1)-c1ccccc1OC21CCN(C(=O)c2ccnc3ccccc23)CC1` [Compound 652], the 50% inhibitory concentration (IC50) was no more than 2 µM.
For `Cn1ncc2c1-c1ccccc1OC21CCN(C(=O)c2ccc(S(=O)(=O)C(F)(F)F)cc2)CC1` [Compound 663], the IC50 is no more than 2 µM.
In the case of `COc1cc(OC)c(C(=O)N2CCC3(CC2)Oc2cc(Cl)ccc2-n2cccc23)cc1CO` [Compound 576] it was no more than 2 µM; in that of `COc1ccc2c(c1)-c1c(cnn1C)C1(CCN(C(=O)c3ccccc3OC(F)F)CC1)O2` [Compound 480], no more than 2 µM; in that of `Cc1cc(C(=O)N2CCC3(CC2)Oc2ccccc2-n2c(CN)ccc23)ccc1OC(C)C` [Compound 733], 2 to 5 µM.
In the case of `COc1cc(C(=O)N2CCC3(CC2)Oc2ccccc2-n2c([S+](C)[O-])ccc23)ccc1OC(C)(C)C` (stereo not drawn) [Compound 46] it was greater than 5 µM.
In the case of `CC(C)S(=O)(=O)c1ccc(C(=O)N2CCC3(CC2)Oc2ccccc2-n2c(C(F)F)ccc23)cc1` [Compound 260] it was 2 to 5 µM; in that of `Cc1cc(C(=O)N2CCC3(CC2)Oc2ccccc2-n2c(C#N)ccc23)ccc1[C@](C)(O)CO` [Compound 54], no more than 2 µM.
As to `Cc1cc(C(=O)N2CCC3(CC2)Oc2ccccc2-c2c3cnn2C)ccc1S(C)(=O)=O` [Compound 141], the half-maximal inhibitory concentration (IC50) was no more than 2 µM.
In the case of `CC(C)(O)c1ccc(C(=O)N2CCC3(CC2)Oc2ccccc2-n2c(C(F)(F)F)ccc23)cc1CO` [Compound 572] it was 2 to 5 µM; in that of `Cc1ccc(OC(C)C)c(C(=O)N2CCC3(CC2)Oc2ccccc2-c2c3cnn2C)c1` [Compound 710], no more than 2 µM; in that of `Cn1ncc2c1-c1ccccc1OC21CCN(C(=O)c2ccc(OCCO)cc2)CC1` [Compound 496], greater than 5 µM.
With `COc1ccc(C(=O)N2CCC3(CC2)Oc2ccccc2-c2c3cnn2C)c(OC(F)(F)F)c1` [Compound 664] the figure was no more than 2 µM; with `CC(C)n1ncc2c1-c1ccccc1OC21CCN(C(=O)c2ccc(S(=O)(=O)C(C)C)cc2)CC1` [Compound 594], no more than 2 µM; with `COC[C@H](C)Oc1ccc(C(=O)N2CCC3(CC2)Oc2cc(Cl)ccc2-n2cccc23)cc1OC` [Compound 172], no more than 2 µM.
In the case of `COc1cc(C(=O)N2CCC3(CC2)Oc2cc(Cl)ccc2-n2cccc23)ccc1OC[C@H](C)OC` [Compound 407] it was no more than 2 µM; in that of `O=C(c1ccc2nc(Cl)sc2c1)N1CCC2(CC1)Oc1ccccc1-n1c(C(F)(F)F)ccc12` [Compound 505], 2 to 5 µM.
Consider `Cc1nc2cccc(C(=O)N3CCC4(CC3)Oc3ccccc3-c3c4cnn3C)c2o1` [Compound 224], for which the IC50 was no more than 2 µM.
Regarding `Cc1cc(C(=O)N2CCC3(CC2)Oc2cccc(C)c2-n2c(C#N)ccc23)ccc1OC(C)C` [Compound 490], the IC50 was no more than 2 µM.
In the case of `CC(C)Oc1ccc(C(=O)N2CCC3(CC2)Oc2ccccc2-c2nn(C)cc23)cn1` [Compound 830] it was no more than 2 µM.
With `Cn1ncc2c1-c1ccccc1OC21CCN(C(=O)c2ccccc2O)CC1` [Compound 102] the figure was greater than 5 µM.
With `COc1cc(C(=O)N2CCC3(CC2)Oc2ccccc2-c2c3cnn2C)ccc1OCC(N)=O` [Compound 507] the figure was greater than 5 µM; with `CC[C@H](C)Oc1ccc(C(=O)N2CCC3(CC2)Oc2ccccc2-n2cccc23)cc1C#N` [Compound 744], no more than 2 µM; with `Cc1nc(C(=O)N2CCC3(CC2)Oc2ccccc2-c2c3cnn2C)ccc1OC(C)C` [Compound 834], no more than 2 µM.
Regarding `O=C(c1cc2occc2[nH]1)N1CCC2(CC1)Oc1ccccc1-n1c(C(F)(F)F)ccc12` [Compound 214], the IC50 is greater than 5 µM.
In the case of `Cn1ncc2c1-c1ccccc1OC21CCN(C(=O)c2cc3ccccc3n2C)CC1` [Compound 317] it was greater than 5 µM; in that of `CCOc1cc(C(=O)N2CCC3(CC2)Oc2ccccc2-c2nn(C)cc23)ccc1OC` [Compound 98], no more than 2 µM; in that of `O=C(c1ccnc(N2CCCCC2)c1)N1CCC2(CC1)Oc1ccccc1-n1cccc12` [Compound 551], no more than 2 µM.
With `Cc1cc(C(=O)N2CCC3(CC2)Oc2ccccc2-n2c(C#N)ccc23)ccc1OC(C)C` [Compound 655] the figure was no more than 2 µM; with `Cc1cc(C(=O)N2C3CCC2CC2(C3)Oc3ccccc3-n3cccc32)ccc1OC(C)C` (stereo not drawn) [Compound 32], no more than 2 µM; with `COc1cc(C(=O)N2CCC3(CC2)Oc2ccccc2-n2c(C(C)=O)ccc23)ccc1OC(C)C` [Compound 114], no more than 2 µM.
With `Cc1cc(C(=O)N2CCC3(CC2)Oc2ccccc2-c2c3cnn2C)c(C)cc1OC(C)C` [Compound 202] the figure was no more than 2 µM.
With `Cc1c(CO)cccc1C(=O)N1CCC2(CC1)Oc1ccccc1-c1c2cnn1C` [Compound 746], the IC50 is 2 to 5 µM.
In the case of `CC(C)Oc1ccc(C(=O)N2CCC3(CC2)Oc2ccccc2-n2c(C#N)ccc23)c(CO)c1` [Compound 310] it was no more than 2 µM; in that of `Cn1ccc(C(=O)N2CCC3(CC2)Oc2ccccc2-n2cccc23)cc1=O` [Compound 405], greater than 5 µM.
With `COc1cc(C(=O)N2CCC3(CC2)Oc2cc(Cl)ccc2-n2cccc23)ccc1OC[C@H]1COC(C)(C)O1` [Compound 759], the IC50 was no more than 2 µM.
In the case of `Cc1ccc(C(=O)N2CCC3(CC2)Oc2cc(F)ccc2-n2cccc23)cc1C` [Compound 349] it was no more than 2 µM; in that of `COc1cc(C(=O)N2CCC3(CC2)Oc2cc(Cl)ccc2-n2cccc23)ccc1C(C)(C)CO` [Compound 417], no more than 2 µM; in that of `COc1cc(C(=O)N2CCC3(CC2)Oc2ccccc2-c2c3cnn2C)ccc1S(=O)(=O)C(C)C` [Compound 586], greater than 5 µM.
With `Cc1cc(C(=O)N2CCC3(CC2)Oc2ccccc2-n2c(C(F)(F)F)ccc23)ccc1O` [Compound 732] the figure was no more than 2 µM; with `COCCCOc1ccc(C(=O)N2CCC3(CC2)Oc2cc(Cl)ccc2-n2cccc23)cc1C(F)(F)F` [Compound 238], no more than 2 µM.
